# According to US20220274913A1, “PROCESS FOR MANUFACTURING A SUBSTITUTED CYCLOHEXANECARBONITRILE” (SOLVAY SA, priority 2019, published 2022):
# “Also recorded” adds a separate entry of the source.
# Legend:
# Assay type in all cases: physicochemical
# [1] = Approx density of polar solvents at ambient temperature
# [2] = TOC in the H2O2 obtained (solubility of the solvent in H2O2); conditions: for Solubility of the solvent in H2O2 (as indicated by level of TOC in the H2O2 obtained): comparison in words, Table 2
# [3] = Weight partition coefficient Kb of hydrogen peroxide between the water and the working solution; H2O2 in organic phase
# Experimental: (§1) (*) the polar solvents tested were sextate, decanenitrile, 2,2,6-trimethylcyclohexanecarbonitrile (C10A), 2,2,5,6-tetramethylcyclohexanecarbonitrile (C11A) and 1,2,2,4-tetramethylcyclohexylcarbonitrile (C11B). […] In this Figure, Kb stands for the weight partition coefficient of hydrogen peroxide between the water and the working solution (mixture of quinones and organic solvents). It is calculated using the following formula:
# Kb=(g H2O2/kg aqueous phase)/(g H2O2/kg organic phase)
# [4] = Solubility tests of hydrogenated quinones (QH) in solvent mixtures (polar solvent + S-150), synthetic EQ/ETQ working solutions; conditions: for Test level values (theoretical gH2O2/kg of WS), comparison in words: Table 1; for Test level (gH2O2/kg) measured at 60° C. / Test level (gH2O2/kg) measured at 65° C. / Test level (gH2O2/kg) measured at 70° C. / Test level (gH2O2/kg) measured at 55° C. / Test level (gH2O2/kg) measured at 50° C.: 34*QH/240
# Experimental: The determination of the QH solubility was performed on synthetic EQ/ETQ working solutions. These quinones mixed in the tested solvents have been hydrogenated to a fixed level and cooled down successively to 3 different temperatures before the measurement (min. 3 hours to stabilize the system between each measurement). The conditions applied for these tests were:
# as §1, with “formula: […]” for “formula:”
# The maximum solubility of a hydrogenated quinone (QH) in a solvent mixture is directly correlated with the productivity of the working solution. The higher is the QH solubility, the higher will be the theoretical quantity of hydrogen peroxide achievable per kg of WS (Productivity). These theoretical values, designated by the terms “Test level (gH2O2/kg of WS) measured at . . . ” in Table 1, were calculated as follows: […]
# 1 mole (240 g) ETQH (which actually is the QH in our Examples) per kg of WS will produce 1 mole (34 g) of H2O2 per kg of WS.
# [5] = Polar solvent 30% / Solvesso 150 70%
# [6] = Polar solvent 40% / Solvesso 150 60%
# [7] = Polar solvent 50% / Solvesso 150 50%
# [8] = Polar solvent 60% / Solvesso 150 40%
# [9] = Polar solvent 70% / Solvesso 150 30%
# [10] = polar solvent 77% / S150 23%, listed as 4MCH-CN
Approx density of polar solvents at amb T° [1] [kg/L],"TOC in H2O2 [2, 5] [ppm]","TOC in H2O2 [2, 6] [ppm]","TOC in H2O2 [2, 7] [ppm]","TOC in H2O2 [2, 8] [ppm]","TOC in H2O2 [2, 9] [ppm]","H2O2 in OP [3, 5] [g/kg]","H2O2 in OP [3, 6] [g/kg]","H2O2 in OP [3, 7] [g/kg]","H2O2 in OP [3, 8] [g/kg]","H2O2 in OP [3, 9] [g/kg]",Test level (gH2O2/kg) measured at 60° C. ([4]; polar solvent 50% / S150 50%) [gH2O2/kg],Test level (gH2O2/kg) measured at 65° C. ([4]; polar solvent 50% / S150 50%) [gH2O2/kg],Test level (gH2O2/kg) measured at 70° C. ([4]; polar solvent 50% / S150 50%),Solubility of the solvent in H2O2 (as indicated by level of TOC in the H2O2 obtained) [2],Compound,"Test level values (theoretical gH2O2/kg of WS), comparison in words [4]",other results
~0.89,928,1042,1248,1456,1684,0.9821,1.466,2.135,3.08,3.871,10.5,11.4,full soluble,–,"CC1CCCC(C)(C)C1C#N (stereo not shown) [C10A, 2,2,6-trimethylcyclohexanecarbonitrile]",much higher (almost the double in fact) than with sextate or a linear nitrile like decanenitrile,QH (g/kg) measured at 70° C. ([4]; polar solvent 50% / S150 50%): full soluble; Test level (gH2O2/kg) measured at 60° C. ([4]; polar solvent 60% / S150 40%): 15.6 gH2O2/kg; QH (g/kg) measured at 65° C. ([4]; polar solvent 60% / S150 40%): full soluble; Test level (gH2O2/kg) measured at 65° C. ([4]; polar solvent 60% / S150 40%): full soluble; QH (g/kg) measured at 70° C. ([4]; polar solvent 60% / S150 40%): full soluble; Test level (gH2O2/kg) measured at 70° C. ([4]; polar solvent 60% / S150 40%): full soluble
~0.94,–,–,–,–,–,–,–,–,–,–,–,–,–,–,"methyl cyclohexyl acetate [Sextate, reference compound]",–,QH (g/kg) measured at 60° C. ([4]; polar solvent 40% / S150 60%): 52 g/kg; Test level (gH2O2/kg) measured at 60° C. ([4]; polar solvent 40% / S150 60%): 7.4 gH2O2/kg; QH (g/kg) measured at 65° C. ([4]; polar solvent 40% / S150 60%): 60.8 g/kg; Test level (gH2O2/kg) measured at 65° C. ([4]; polar solvent 40% / S150 60%): 8.6 gH2O2/kg; QH (g/kg) measured at 70° C. ([4]; polar solvent 40% / S150 60%): 68 g/kg; Test level (gH2O2/kg) measured at 70° C. ([4]; polar solvent 40% / S150 60%): 9.6 gH2O2/kg
–,–,308,328,280,290,–,1.632,2.487,3.167,3.805,–,–,–,less soluble in H2O2 than solvent C10A,"CC1CCC(C)(C#N)C(C)(C)C1 (stereo not shown) [C11B, 1,2,2,4-tetramethylcyclohexanecarbonitrile]",–,Test level (gH2O2/kg) measured at 55° C. ([4]; polar solvent 52% / S150 48%): 9.4 gH2O2/kg; Test level (gH2O2/kg) measured at 60° C. ([4]; polar solvent 52% / S150 48%): 10.8 gH2O2/kg; Test level (gH2O2/kg) measured at 65° C. ([4]; polar solvent 52% / S150 48%): 15.1 gH2O2/kg; QH (g/kg) measured at 70° C. ([4]; polar solvent 52% / S150 48%): full soluble; Test level (gH2O2/kg) measured at 70° C. ([4]; polar solvent 52% / S150 48%): full soluble; Test level (gH2O2/kg) measured at 55° C. ([4]; polar solvent 70% / S150 30%): 15.5 gH2O2/kg; QH (g/kg) measured at 60° C. ([4]; polar solvent 70% / S150 30%): complete solubility; also recorded: full soluble; QH (g/kg) measured at 65° C. ([4]; polar solvent 70% / S150 30%): full soluble; Test level (gH2O2/kg) measured at 65° C. ([4]; polar solvent 70% / S150 30%): full soluble; QH (g/kg) measured at 70° C. ([4]; polar solvent 70% / S150 30%): full soluble; Test level (gH2O2/kg) measured at 70° C. ([4]; polar solvent 70% / S150 30%): full soluble
~0.895,281,268,269,274,291,0.919,1.271,–,2.332,2.786,9.8,10.8,14.8 gH2O2/kg,less soluble in H2O2 than solvent C10A,"CC1CCC(C)(C)C(C#N)C1C (stereo not shown) [C11A, 2,2,5,6-tetramethylcyclohexanecarbonitrile]",reach the absolute maximum theoretical value,"Test level (gH2O2/kg) measured at 50° C. ([4]; polar solvent 50% / S150 50%): 7.7 gH2O2/kg; Test level (gH2O2/kg) measured at 55° C. ([4]; polar solvent 50% / S150 50%): 8.6 gH2O2/kg; Test level (gH2O2/kg) measured at 50° C. ([4]; polar solvent 77% / S150 23%): 11.9 gH2O2/kg; Test level (gH2O2/kg) measured at 55° C. ([4]; polar solvent 77% / S150 23%): 12.8 gH2O2/kg; QH (g/kg) measured at 60° C. ([4]; polar solvent 77% / S150 23%): complete solubility; Test level (gH2O2/kg) measured at 60° C. ([4]; polar solvent 77% / S150 23%): 16.3 gH2O2/kg; Test level (gH2O2/kg) measured at 60° C. [4, 10]: full soluble; QH (g/kg) measured at 60° C. [4, 10]: full soluble; QH (g/kg) measured at 65° C. ([4]; polar solvent 77% / S150 23%): full soluble; Test level (gH2O2/kg) measured at 65° C. ([4]; polar solvent 77% / S150 23%): full soluble; QH (g/kg) measured at 70° C. ([4]; polar solvent 77% / S150 23%): full soluble; Test level (gH2O2/kg) measured at 70° C. ([4]; polar solvent 77% / S150 23%): full soluble"
~0.83,–,–,–,–,–,–,–,–,–,–,–,–,–,–,"CCCCCCCCCC#N [Decanenitrile, decanenitrile, reference compound]",–,Test level (gH2O2/kg) measured at 60° C. ([4]; polar solvent 35% / S150 65%): 8.8 gH2O2/kg; Test level (gH2O2/kg) measured at 65° C. ([4]; polar solvent 35% / S150 65%): 10.1 gH2O2/kg; Test level (gH2O2/kg) measured at 70° C. ([4]; polar solvent 35% / S150 65%): 11.1 gH2O2/kg
